Results taken from ChEMBL document CHEMBL5465560, “Selectivity Literature for EUbOPEN Chemogenomic Library” (2024).
Blank lines part the entries; values can stand above or below the compound they belong to.

Experiments:
[1] = target: Protein kinase C gamma type (Homo sapiens) (UniProt P05129); assay: Selectivity interaction (Millipore kinase profiler) EUB0000124b PRKCG; conditions: at 10 µM
[2] = target: Serine/threonine-protein kinase PLK3 (Homo sapiens, UniProt Q9H4B4); assay: Selectivity interaction (KinomeScan (DiscoverX)) EUB0001049a PLK3; conditions: at 1 µM
[3] = target: T1, Serine/threonine-protein kinase 3 (Homo sapiens) (UniProt Q13188); assay: Selectivity interaction (Kinase panel (DSF assay)) EUB0001489b STK3
T1 sequence (whole entry): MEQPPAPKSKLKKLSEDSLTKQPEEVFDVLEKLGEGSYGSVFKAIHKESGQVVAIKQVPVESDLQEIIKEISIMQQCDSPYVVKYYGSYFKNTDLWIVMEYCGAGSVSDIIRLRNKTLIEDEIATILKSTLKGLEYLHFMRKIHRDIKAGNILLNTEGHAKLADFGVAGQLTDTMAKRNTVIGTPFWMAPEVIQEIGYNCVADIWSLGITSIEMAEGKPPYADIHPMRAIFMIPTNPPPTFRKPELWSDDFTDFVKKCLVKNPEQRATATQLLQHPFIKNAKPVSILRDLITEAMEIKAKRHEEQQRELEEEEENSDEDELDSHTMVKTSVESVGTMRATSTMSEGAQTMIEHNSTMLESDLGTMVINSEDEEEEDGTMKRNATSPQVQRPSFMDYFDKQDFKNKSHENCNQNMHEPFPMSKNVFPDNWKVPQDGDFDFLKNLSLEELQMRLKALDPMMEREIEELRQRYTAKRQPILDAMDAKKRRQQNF

[4] = target: T2, Phosphorylase b kinase gamma catalytic chain, liver/testis isoform (Homo sapiens) (UniProt P15735); assay: Selectivity interaction (KinomeScan (DiscoverX)) EUB0000695a PHKG2; conditions: at 100 nM
T2 sequence (whole entry): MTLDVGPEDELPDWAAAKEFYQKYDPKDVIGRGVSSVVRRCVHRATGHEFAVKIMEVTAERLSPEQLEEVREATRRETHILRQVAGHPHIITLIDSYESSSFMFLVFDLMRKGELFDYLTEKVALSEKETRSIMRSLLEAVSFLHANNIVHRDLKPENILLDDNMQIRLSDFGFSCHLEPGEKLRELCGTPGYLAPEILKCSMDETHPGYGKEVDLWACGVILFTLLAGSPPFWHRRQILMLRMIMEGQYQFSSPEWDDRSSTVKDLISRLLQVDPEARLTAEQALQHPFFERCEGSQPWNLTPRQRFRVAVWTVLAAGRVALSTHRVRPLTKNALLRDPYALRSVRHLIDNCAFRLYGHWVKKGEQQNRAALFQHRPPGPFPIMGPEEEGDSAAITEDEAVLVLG

[5] = target: Serine/threonine-protein kinase 16 (Homo sapiens, UniProt O75716); assay: Selectivity interaction (KinomeScan (DiscoverX)) EUB0001079a STK16; conditions: at 1 µM
[6] = target: Activin receptor type-2A (Homo sapiens) (UniProt P27037); assay: Selectivity interaction (ProQinase) EUB0000171b ACVR2A
[7] = target: Citron Rho-interacting kinase (Homo sapiens) (UniProt O14578); assay: Selectivity interaction (KinomeScan (DiscoverX)) EUB0000092b CIT; conditions: at 10 µM
[8] = target: Proto-oncogene tyrosine-protein kinase receptor Ret (Homo sapiens, UniProt P07949); assay: (§1) Selectivity interaction (KinomeScan (DiscoverX)) EUB0000092b RET; conditions: at 10 µM
[9] = system: Proto-oncogene tyrosine-protein kinase receptor Ret (Homo sapiens), P07949 [V804M]; assay: as §1; conditions: at 10 µM
[10] = system: Proto-oncogene tyrosine-protein kinase receptor Ret (Homo sapiens), P07949 [M918T]; assay: as §1; conditions: at 10 µM
[11] = system: Proto-oncogene tyrosine-protein kinase receptor Ret (Homo sapiens), P07949 [V804L]; assay: as §1; conditions: at 10 µM
[12] = target: Mitogen-activated protein kinase 6 (Homo sapiens) (UniProt Q16659); assay: Selectivity interaction (KinomeScan (DiscoverX)) EUB0000092b MAPK6; conditions: at 10 µM
[13] = target: T3, Serine/threonine-protein kinase ULK1 (Homo sapiens) (UniProt O75385); assay: Selectivity interaction (KinomeScan (DiscoverX)) EUB0000618a ULK1; conditions: at 10 µM
T3 sequence (whole entry): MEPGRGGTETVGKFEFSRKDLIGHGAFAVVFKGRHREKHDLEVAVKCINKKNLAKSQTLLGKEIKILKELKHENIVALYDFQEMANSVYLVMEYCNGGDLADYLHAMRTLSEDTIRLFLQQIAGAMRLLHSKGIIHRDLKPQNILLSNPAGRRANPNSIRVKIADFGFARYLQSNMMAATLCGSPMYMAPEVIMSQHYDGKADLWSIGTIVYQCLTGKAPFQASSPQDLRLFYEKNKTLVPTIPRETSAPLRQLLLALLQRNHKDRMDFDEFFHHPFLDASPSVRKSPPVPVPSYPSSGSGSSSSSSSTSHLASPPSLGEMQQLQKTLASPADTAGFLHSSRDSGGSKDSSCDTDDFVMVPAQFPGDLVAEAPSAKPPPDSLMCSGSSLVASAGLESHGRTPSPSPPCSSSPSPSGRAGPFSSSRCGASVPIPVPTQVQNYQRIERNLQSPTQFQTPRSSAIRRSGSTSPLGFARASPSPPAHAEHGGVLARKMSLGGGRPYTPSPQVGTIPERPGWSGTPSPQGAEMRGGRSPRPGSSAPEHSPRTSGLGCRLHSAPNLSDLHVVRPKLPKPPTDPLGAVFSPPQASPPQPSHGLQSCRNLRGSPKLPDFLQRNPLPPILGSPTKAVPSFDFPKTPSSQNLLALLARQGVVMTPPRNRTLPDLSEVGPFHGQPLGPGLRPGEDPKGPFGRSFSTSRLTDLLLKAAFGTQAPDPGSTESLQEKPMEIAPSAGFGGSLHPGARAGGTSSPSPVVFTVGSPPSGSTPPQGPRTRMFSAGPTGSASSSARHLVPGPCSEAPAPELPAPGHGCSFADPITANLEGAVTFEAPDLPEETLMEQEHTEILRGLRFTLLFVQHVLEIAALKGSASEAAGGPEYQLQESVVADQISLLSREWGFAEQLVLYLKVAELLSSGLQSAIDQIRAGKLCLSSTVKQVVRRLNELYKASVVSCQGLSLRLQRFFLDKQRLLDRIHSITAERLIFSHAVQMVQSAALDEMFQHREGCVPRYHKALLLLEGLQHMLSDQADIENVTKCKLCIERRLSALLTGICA

[14] = target: Tyrosine-protein kinase Fer (Homo sapiens) (UniProt P16591); assay: Selectivity interaction (KinomeScan (DiscoverX)) EUB0000607a FER; conditions: at 10 µM
Chain of Tyrosine-protein kinase Fer (Homo sapiens) (P16591 whole entry, looked up): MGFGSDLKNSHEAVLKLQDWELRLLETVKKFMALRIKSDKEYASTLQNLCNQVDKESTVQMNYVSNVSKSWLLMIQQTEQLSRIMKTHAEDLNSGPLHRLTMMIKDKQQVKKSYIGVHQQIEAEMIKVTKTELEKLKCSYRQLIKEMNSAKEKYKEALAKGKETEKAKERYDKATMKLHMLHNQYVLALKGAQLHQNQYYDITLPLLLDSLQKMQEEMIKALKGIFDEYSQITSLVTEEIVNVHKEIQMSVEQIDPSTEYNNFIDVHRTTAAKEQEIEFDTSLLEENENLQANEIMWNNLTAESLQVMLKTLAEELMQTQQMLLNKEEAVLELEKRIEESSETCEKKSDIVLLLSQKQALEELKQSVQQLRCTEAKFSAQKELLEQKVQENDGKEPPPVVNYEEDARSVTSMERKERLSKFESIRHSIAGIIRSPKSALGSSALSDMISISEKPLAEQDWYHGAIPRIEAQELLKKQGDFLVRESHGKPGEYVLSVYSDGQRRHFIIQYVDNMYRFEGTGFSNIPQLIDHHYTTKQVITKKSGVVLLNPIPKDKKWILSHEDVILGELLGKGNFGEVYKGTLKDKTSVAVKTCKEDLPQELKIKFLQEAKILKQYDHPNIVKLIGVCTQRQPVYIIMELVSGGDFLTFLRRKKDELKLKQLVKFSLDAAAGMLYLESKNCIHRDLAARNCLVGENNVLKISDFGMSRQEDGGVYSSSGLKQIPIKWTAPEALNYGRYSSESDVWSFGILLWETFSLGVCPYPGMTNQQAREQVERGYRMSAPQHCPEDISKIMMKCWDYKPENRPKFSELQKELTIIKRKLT

Chain of Activin receptor type-2A (Homo sapiens) (P27037 whole entry): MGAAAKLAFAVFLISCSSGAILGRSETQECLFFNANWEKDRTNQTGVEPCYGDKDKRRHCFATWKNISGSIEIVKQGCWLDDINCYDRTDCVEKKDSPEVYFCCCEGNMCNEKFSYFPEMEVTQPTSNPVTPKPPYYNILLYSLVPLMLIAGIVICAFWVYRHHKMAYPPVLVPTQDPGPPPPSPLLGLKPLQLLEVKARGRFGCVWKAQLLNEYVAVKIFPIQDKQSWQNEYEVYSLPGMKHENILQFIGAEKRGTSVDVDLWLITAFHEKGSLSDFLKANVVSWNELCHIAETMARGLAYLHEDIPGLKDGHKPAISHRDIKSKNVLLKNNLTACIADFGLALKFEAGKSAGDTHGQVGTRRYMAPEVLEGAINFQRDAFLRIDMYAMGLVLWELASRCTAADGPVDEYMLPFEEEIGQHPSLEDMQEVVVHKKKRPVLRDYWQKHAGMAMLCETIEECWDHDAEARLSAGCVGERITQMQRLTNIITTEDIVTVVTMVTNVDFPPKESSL
Chain of Proto-oncogene tyrosine-protein kinase receptor Ret (Homo sapiens), P07949 [M918T] (P07949 whole entry M918T): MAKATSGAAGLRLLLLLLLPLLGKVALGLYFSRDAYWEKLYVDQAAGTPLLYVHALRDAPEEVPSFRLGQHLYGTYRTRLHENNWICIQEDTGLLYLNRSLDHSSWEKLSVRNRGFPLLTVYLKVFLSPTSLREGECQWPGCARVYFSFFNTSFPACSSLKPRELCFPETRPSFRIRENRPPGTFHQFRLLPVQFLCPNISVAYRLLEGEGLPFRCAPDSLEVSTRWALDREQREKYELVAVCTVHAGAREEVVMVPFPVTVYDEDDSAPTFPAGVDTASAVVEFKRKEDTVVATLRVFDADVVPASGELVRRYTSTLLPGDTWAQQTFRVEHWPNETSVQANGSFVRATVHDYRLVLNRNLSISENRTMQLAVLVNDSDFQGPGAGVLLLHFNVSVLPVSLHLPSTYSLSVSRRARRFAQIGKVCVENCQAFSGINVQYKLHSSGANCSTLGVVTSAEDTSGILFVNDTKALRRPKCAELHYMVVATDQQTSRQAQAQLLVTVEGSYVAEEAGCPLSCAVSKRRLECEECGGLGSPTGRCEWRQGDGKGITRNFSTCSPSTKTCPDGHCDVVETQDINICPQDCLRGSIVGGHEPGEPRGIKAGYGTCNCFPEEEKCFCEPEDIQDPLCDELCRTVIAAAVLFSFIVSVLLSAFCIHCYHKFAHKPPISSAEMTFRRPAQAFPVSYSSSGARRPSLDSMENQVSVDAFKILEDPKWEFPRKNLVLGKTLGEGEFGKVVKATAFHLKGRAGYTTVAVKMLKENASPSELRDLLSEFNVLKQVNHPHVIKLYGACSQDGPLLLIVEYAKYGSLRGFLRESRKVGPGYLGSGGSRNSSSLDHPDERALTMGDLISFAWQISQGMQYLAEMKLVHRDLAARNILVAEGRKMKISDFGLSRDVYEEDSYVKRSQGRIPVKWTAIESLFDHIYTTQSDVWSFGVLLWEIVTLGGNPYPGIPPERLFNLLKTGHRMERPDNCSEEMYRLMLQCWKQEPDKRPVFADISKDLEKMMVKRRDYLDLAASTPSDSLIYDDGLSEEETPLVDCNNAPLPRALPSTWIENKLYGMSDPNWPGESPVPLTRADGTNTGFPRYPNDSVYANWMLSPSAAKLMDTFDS
Chain of Proto-oncogene tyrosine-protein kinase receptor Ret (Homo sapiens), P07949 [V804L] (P07949 whole entry V804L): as the sequence (P07949 whole entry M918T) above, with V804L, T918M counted along it
Chain of Serine/threonine-protein kinase 16 (O75716 whole entry): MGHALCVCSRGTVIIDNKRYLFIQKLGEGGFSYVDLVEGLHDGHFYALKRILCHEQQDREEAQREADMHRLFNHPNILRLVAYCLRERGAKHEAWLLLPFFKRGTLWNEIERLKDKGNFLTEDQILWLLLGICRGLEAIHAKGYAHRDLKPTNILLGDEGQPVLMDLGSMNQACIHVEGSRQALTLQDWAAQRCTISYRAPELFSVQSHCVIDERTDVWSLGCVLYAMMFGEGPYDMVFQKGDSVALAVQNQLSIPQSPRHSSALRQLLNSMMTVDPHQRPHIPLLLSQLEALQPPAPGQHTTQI
Chain of Proto-oncogene tyrosine-protein kinase receptor Ret (Homo sapiens), P07949 [V804M] (P07949 whole entry V804M): as the sequence (P07949 whole entry M918T) above, with V804M, T918M counted along it

- % of control [1]: 107%
SMILES: CC(=O)Nc1cccc(-n2c(=O)n(C3CC3)c(=O)c3c(Nc4ccc(I)cc4F)n(C)c(=O)c(C)c32)c1

SMILES: COc1cc(Nc2nc(C)cc(-c3cnn4nc(OC)ccc34)n2)cc(C(F)(F)F)c1
- % of control [2]: 72%

- dTM [3]: 3.4 K
SMILES: CN1CCN(C(=O)c2ccc3cc2OCCOCCNc2ccn4ncc-3c4n2)CC1

SMILES: Cc1cc(F)c(C(=O)Nc2cccc(-c3nncn3C(C)C)n2)cc1-n1cnc(C2CC2)c1
- % of control [4]: 85%

SMILES: Nc1cnc(N2CCc3cc(S(=O)(=O)Nc4c(F)cc(Cl)cc4F)cc(N4CCCC4=O)c32)nc1 [TP-020n]
- % of control [5]: 100%

- % of control ([6]; at 1 µM): 81%
- % of control ([6]; at 5 µM): 80%
SMILES: C=CC(=O)Nc1cccc(C(=O)Nc2ccc(Nc3cc(-c4[nH]c(SC)nc4C)ccn3)cc2)c1

SMILES: CCC(=O)N1CCN(c2ccc(-n3c(=O)ccc4cnc5ccc(-c6cnc7ccccc7c6)cc5c43)cc2C(F)(F)F)CC1
- % of control [7]: 59%
- % of control [8]: 44%
- % of control [9]: 69%
- % of control [10]: 51%
- % of control [11]: 66%
- % of control [12]: 1.8%

SMILES: O[C@H]1CC[C@H](Nc2ncc3nc(Nc4c(F)cc(F)cc4F)n([C@H]4CCOC4)c3n2)CC1
- % of control [13]: 84%

SMILES: CNC(=O)Nc1ccc(-c2nc(N3CC4CCC(C3)O4)c3cnn(C4CCC5(CC4)OCCO5)c3n2)cc1
- % of control [14]: 100%
